Data reported in PubChem BioAssay AID248 (DTP/NCI, 2004).
Where “and” joins values, the source holds several entries; their conditions need not be identical. Identical values can stand only once. Inconclusive results and toxic doses are left out. Cut-off read from the data, not from the text of the source: active = T/C of 150% or more; inactive = T/C below 125%.

Test system: L1210 leukemia ip in BDF1 mice, survival T/C
Experiment: NCI In Vivo Anticancer Drug Screen. Data for tumor model L1210 Leukemia (intraperitoneal) in B6D2F1 (BDF1) mice
Conditions: endpoint: mean survival time, higher = longer survival
Outline: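 Transplantable tumor model; survival measured in treated vs vehicle control mice. Value = treated/control.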

[1] = dose: 50.0 mg/kg/injection, schedule: Q01DX009 (ip), vehicle: saline with Tween-80
[2] = dose: 100.0 mg/kg/injection, schedule: Q01DX009 (ip), vehicle: saline with Tween-80
[3] = dose: 200.0 mg/kg/injection, schedule: Q01DX009 (ip), vehicle: saline with Tween-80
[4] = dose: 100.0 mg/kg/injection, schedule: Q04DX002 (ip), vehicle: Klucel (hydroxypropylcellulose) (HPC)
[5] = dose: 200.0 mg/kg/injection, schedule: Q04DX002 (ip), vehicle: Klucel (hydroxypropylcellulose) (HPC)
[6] = dose: 400.0 mg/kg/injection, schedule: Q04DX002 (ip), vehicle: Klucel (hydroxypropylcellulose) (HPC)
[7] = dose: 25.0 mg/kg/injection, schedule: Q01DX009 (ip), vehicle: Klucel (hydroxypropylcellulose) (HPC)
[8] = dose: 50.0 mg/kg/injection, schedule: Q01DX009 (ip), vehicle: Klucel (hydroxypropylcellulose) (HPC)
[9] = dose: 100.0 mg/kg/injection, schedule: Q01DX009 (ip), vehicle: Klucel (hydroxypropylcellulose) (HPC)
[10] = dose: 100.0 mg/kg/injection, schedule: Q01DX001 (ip), vehicle: saline
[11] = dose: 100.0 mg/kg/injection, schedule: Q04DX003 (ip), vehicle: saline
[12] = dose: 200.0 mg/kg/injection, schedule: Q01DX001 (ip), vehicle: saline
[13] = dose: 200.0 mg/kg/injection, schedule: Q04DX003 (ip), vehicle: saline
[14] = dose: 400.0 mg/kg/injection, schedule: Q01DX001 (ip), vehicle: saline
[15] = dose: 400.0 mg/kg/injection, schedule: Q04DX003 (ip), vehicle: saline
[16] = dose: 100.0 mg/kg/injection, schedule: Q04DX003 (ip), vehicle: Klucel (hydroxypropylcellulose) (HPC)
[17] = dose: 200.0 mg/kg/injection, schedule: Q04DX003 (ip), vehicle: Klucel (hydroxypropylcellulose) (HPC)
[18] = dose: 400.0 mg/kg/injection, schedule: Q04DX003 (ip), vehicle: Klucel (hydroxypropylcellulose) (HPC)

Measured: T/C

Cc1ccc(S(=O)(=O)N(CCCc2c(C)nc(N)nc2N)c2ccccc2)cc1
inactive: dose: 100.0 mg/kg/injection, schedule: Q04DX002 (ip), vehicle: saline 110 % of control | dose: 200.0 mg/kg/injection, schedule: Q04DX002 (ip), vehicle: saline 104 % of control | dose: 400.0 mg/kg/injection, schedule: Q04DX002 (ip), vehicle: saline 91 % of control

CCOC(=O)COC(CN)C(Cl)(Cl)Cl (configuration not stated)
inactive: [1] 93 % of control | [2] 90 % of control | [3] 90 % of control

COC(=O)C(NC(=O)CCl)C(=O)OC
inactive: dose: 100.0 mg/kg/injection, schedule: Q04DX003 (ip), vehicle: other 96 % of control | dose: 200.0 mg/kg/injection, schedule: Q04DX003 (ip), vehicle: other 93 % of control | dose: 400.0 mg/kg/injection, schedule: Q04DX003 (ip), vehicle: other 94 % of control

CCCCCCCCCCCCCc1nc(N)nc(N2CCOCC2)n1
inactive: [4] 92 % of control | [5] 95 % of control | [6] 92 % of control

O=S(=O)(Cl)c1cc(Cl)ccc1Cl
inactive: [7] 95 % of control | [8] 98 % of control | [9] 97 % of control

O=C(Cc1ccccn1)c1ccccn1
inactive: [10] 98 % of control | [11] 100 % of control | [12] 117 % of control | [13] 102 % of control | [14] 119 % of control | [15] 98 % of control

Nc1ncc(C(=O)O)c(N)n1
inactive: dose: 12.5 mg/kg/injection, schedule: Q01DX001 (ip), vehicle: other 101 % of control | dose: 12.5 mg/kg/injection, schedule: Q01DX009 (ip), vehicle: saline with Tween-80 110 % of control | dose: 12.5 mg/kg/injection, schedule: Q04DX003 (ip), vehicle: saline with Tween-80 101 % of control | dose: 25.0 mg/kg/injection, schedule: Q01DX001 (ip), vehicle: other 97 % of control | dose: 25.0 mg/kg/injection, schedule: Q01DX009 (ip), vehicle: saline with Tween-80 107 % of control | dose: 25.0 mg/kg/injection, schedule: Q04DX003 (ip), vehicle: saline with Tween-80 104 % of control | dose: 50.0 mg/kg/injection, schedule: Q01DX001 (ip), vehicle: other 101 % of control | [1] 102 % of control | dose: 50.0 mg/kg/injection, schedule: Q04DX003 (ip), vehicle: saline with Tween-80 108 % of control | dose: 100.0 mg/kg/injection, schedule: Q01DX001 (ip), vehicle: other 103 % of control

N#CCCC1C2CCC(C2)C1C#N (configuration not stated)
inactive: dose: 3.0 mg/kg/injection, schedule: Q01DX009 (ip), vehicle: Klucel (hydroxypropylcellulose) (HPC) 96 % of control | dose: 3.0 mg/kg/injection, schedule: Q04DX003 (ip), vehicle: Klucel (hydroxypropylcellulose) (HPC) 96 % of control | dose: 6.0 mg/kg/injection, schedule: Q01DX009 (ip), vehicle: Klucel (hydroxypropylcellulose) (HPC) 96 % of control | dose: 6.0 mg/kg/injection, schedule: Q04DX003 (ip), vehicle: Klucel (hydroxypropylcellulose) (HPC) 98 % of control | dose: 12.0 mg/kg/injection, schedule: Q01DX009 (ip), vehicle: Klucel (hydroxypropylcellulose) (HPC) 98 % of control | dose: 12.0 mg/kg/injection, schedule: Q04DX003 (ip), vehicle: Klucel (hydroxypropylcellulose) (HPC) 98 % of control | dose: 12.5 mg/kg/injection, schedule: Q04DX003 (ip), vehicle: Klucel (hydroxypropylcellulose) (HPC) 105 % of control

O=C1NC(=O)C(Cl)(c2ccccc2)C(=O)N1
inactive: dose: 25.0 mg/kg/injection, schedule: Q04DX003 (ip), vehicle: saline 99 % of control | dose: 50.0 mg/kg/injection, schedule: Q04DX003 (ip), vehicle: saline 87 % of control | [11] 96 % of control

COC(=O)c1cc([N+](=O)[O-])c(Cl)c([N+](=O)[O-])c1
inactive: dose: 12.5 mg/kg/injection, schedule: Q01DX009 (ip), vehicle: Klucel (hydroxypropylcellulose) (HPC) 98 % of control | [7] 87 % of control | [16] 89 % of control

CCOC(=O)c1cc([N+](=O)[O-])cnc1C
inactive: dose: 100.0 mg/kg/injection, schedule: Q01DX001 (ip), vehicle: saline sonified 96 % of control | dose: 200.0 mg/kg/injection, schedule: Q01DX001 (ip), vehicle: saline sonified 96 % of control | dose: 400.0 mg/kg/injection, schedule: Q01DX001 (ip), vehicle: saline sonified 97 % of control

NNC(=O)c1ccc(Br)cc1
inactive: [7] 93 % of control | [8] 96 % of control | [9] 104 % of control | [16] 94 % of control | [17] 103 % of control | [18] 106 % of control

CCOC(=O)CC(C(=O)OCC)C(C(=O)OCC)C(=O)OCC (configuration not stated)
inactive: [1] 111 % of control | [2] 101 % of control | [3] 101 % of control

Cc1ccc2c([nH]1)c(C)cc1nc3ccccc3c12
inactive: dose: 50.0 mg/kg/injection, schedule: Q01DX001 (ip), vehicle: carboxymethylcellulose (CMC) 103 % of control | dose: 50.0 mg/kg/injection, schedule: Q01DX001 (ip), vehicle: saline 95 % of control | [10] 101 % of control | dose: 200.0 mg/kg/injection, schedule: Q01DX001 (ip), vehicle: carboxymethylcellulose (CMC) 95 % of control | [12] 110 % of control | dose: 400.0 mg/kg/injection, schedule: Q01DX001 (ip), vehicle: carboxymethylcellulose (CMC) 104 % of control | [14] 101 % of control

O=c1[nH]c(=S)c2ncn(C3OC(CO)C(O)C3O)c2[nH]1 (configuration not stated)
inactive: [10] 107 % of control | [12] 101 % of control | [14] 104 % of control

CCc1nc(N)nc(N)c1-c1ccc([N+](=O)[O-])cc1O
inactive: [16] 92 % of control | [17] 93 % of control | [18] 89 % of control

CC(=O)NCc1ccc(N)cc1
inactive: dose: 12.5 mg/kg/injection, schedule: Q01DX009 (ip), vehicle: water 114 % of control | dose: 25.0 mg/kg/injection, schedule: Q01DX009 (ip), vehicle: water 112 % of control | dose: 50.0 mg/kg/injection, schedule: Q01DX009 (ip), vehicle: water 114 % of control | dose: 100.0 mg/kg/injection, schedule: Q01DX009 (ip), vehicle: water 120 % of control | dose: 200.0 mg/kg/injection, schedule: Q01DX009 (ip), vehicle: water 116 % of control

CC12CCC(O)CC1=CCC1C2CCC2(C)c3nc(C#N)c(=N)n(O)c3CC12 (configuration not stated)
inactive: [4] 94 % of control | [5] 105 % of control

O=C(N/N=C/c1cccc(F)c1)c1ccccc1Cl
inactive: [1] 91 % of control | [2] 102 % of control | [3] 87 % of control

CC1(c2ccc3ccccc3c2)OCC2(CCCCC2)CO1
inactive: dose: 50.0 mg/kg/injection, schedule: Q04DX002 (ip), vehicle: Klucel (hydroxypropylcellulose) (HPC) 93 % of control | [4] 100 % of control | [5] 100 % of control | [6] 96 % of control and 97 % of control

CC(C)(C)c1cccc(C(C)(C)C)c1O
inactive: [11] 102 % of control | [13] 98 % of control | [15] 90 % of control

CCOC(=O)CC(C)(N)NC(N)=O (configuration not stated)
inactive: [2] 98 % of control | [11] 104 % of control | [3] 93 % of control | [13] 106 % of control | dose: 400.0 mg/kg/injection, schedule: Q01DX009 (ip), vehicle: saline with Tween-80 90 % of control | [15] 106 % of control

C(Cc1ccccc1)=C(CCc1ccccc1)CCc1ccccc1
inactive: dose: 100.0 mg/kg/injection, schedule: Q01DX001 (ip), vehicle: saline with Tween-80 104 % of control | dose: 200.0 mg/kg/injection, schedule: Q01DX001 (ip), vehicle: saline with Tween-80 93 % of control | dose: 400.0 mg/kg/injection, schedule: Q01DX001 (ip), vehicle: saline with Tween-80 93 % of control

OCC[CH2][Pb]([c]1ccccc1)([c]1ccccc1)[c]1ccccc1
inactive: dose: 3.12 mg/kg/injection, schedule: Q04DX003 (ip), vehicle: Klucel (hydroxypropylcellulose) (HPC) 94 % of control | dose: 6.25 mg/kg/injection, schedule: Q04DX003 (ip), vehicle: Klucel (hydroxypropylcellulose) (HPC) 97 % of control
